From patent US20250222003A1, “PHARMACEUTICAL COMPOSITION FOR TREATING SOLID TUMORS” (Eisai R&D Management Co., Ltd., priority 2021, published 2025)
Like-named read-outs stand apart in the source and are kept apart here. Marks after values point to notes of the source that are not given here.

Assay: Pharmacokinetics of Compound A, phase I dose-escalation part (plasma)
Type: in vivo, human
Details: for AUC(0-t) / Cmax / Tmax / AUC / half-life: human, plasma, oral; for AUC(0-t): read-out: AUC(0-12 h); for half-life: read-out: Effective t1/2 (converted)
Experimental: In the treatment phase, Compound A (an oral formulation containing Compound A) is administered to the subjects of administration in one cycle of 28 days. The subjects continued to receive Compound A until disease progression, development of intolerable side effects, the desire for discontinuation of administration and consent withdrawal by the subjects of administration, or trial discontinuation by the clinical trial client. One cycle is 28 days of administration, and such an abbreviation as “C1D28” indicates the number of cycles and the number of days in the cycle, for example, “C1D28” means the 28th day of cycle 1 (the first cycle). The subjects of administration were hospitalized until the time of […] and took a medical consultation and physical examination at the time of C1D15, and if the principal investigator or sub investigator was judged, from the results, that there were no medical problems, the subjects were allowed to leave the hospital. If administration was to be continued after the completion of the medical consultation and physical examination at the time of C2D1, written consent for continuation was obtained before administration at the time of C2D1.
Tablets containing Compound A are used as Compound A and administered orally repeatedly twice daily (BID). The subjects fasted 2 hours before and 1 hour after administration. The tablets were taken with water and, if possible, at the prescribed time, but if this was not possible, the tablets were taken 8 hours or more after the previous administration.
In the dose-escalation part, blood was collected from the subjects of administration according to the schedule shown in Table 5, and the pharmacokinetics of Compound A was evaluated. In the expansion part, blood was collected from the subjects of administration before the first administration at C1D1 and CID8, 0.5, 1 and 2 hours after the oral administration of Compound A, and before the first administration at C2D1, and the pharmacokinetics of Compound A was evaluated. The data for C1D1 (the first day of the first cycle) corresponds to the results of a single-dose administration, and the data for C1D8 (the eighth day of the first cycle) corresponds to the results after multiple-dose administration for 8 days at 2 doses per 1 day.
a Based on 5 patients; b based on 2 patients; c based on 3 patients. tmax is reported as median (range). All other values are reported as geometric mean (% CV). Parameters with two patients are reported for both patients.

[1] = C1D8, 160 mg BID (n = 2), both patients
[2] = 160 mg, C1D8, 160 mg BID (n = 2), both patients

With C=CCN1CC(=O)N2[C@@H](Cc3ccc(O)cc3F)C(=O)N(Cc3cccc(N4CC(N5CCN(CC)CC5)C4)n3)C[C@@H]2N1C(=O)NCc1ccccc1 [Compound A, (6S,9aS)—N-benzyl-8-({6-[3-(4-ethylpiperazin-1-yl)azetidin-1-yl]pyridin-2-yl}methyl)-6-(2-fluoro-4-hydroxybenzyl)-4,7-dioxo-2-(prop-2-en-1-yl)hexahydro-2H-pyrazino[2,1-c][1,2,4]triazine-1 (6H)-carboxamide] the “relation of exposure to dosage” value (10-160 mg BID, Tables 6 and 7) was “exposure amount increased as the dosage of Compound A increased”, the “Effective t1/2” value (C1D8, 20 mg BID, based on 2 patients, both patients) was 18.0 ^b h and the “C max, ss” value [1] was 3850 ng/mL. For the same compound, the “Effective t1/2” value [1] was 25.6 h, the “t max, ss” value [1] was 1.00, 1.00 h and the AUC(0-t) (10 mg, C1D1, 10 mg BID (n = 3), geometric mean) was 131 ng·h/mL. For the same compound, the Cmax (10 mg, C1D1, 10 mg BID (n = 3), geometric mean, read-out: Cmax) was 37.2 ng/mL, the Tmax (10 mg, C1D1, 10 mg BID (n = 3), median) was 2 h and the AUC (10 mg, C1D8, 10 mg BID (n = 3), geometric mean, read-out: AUC (0-tau), ss) was 210 ng·h/mL. The Cmax (10 mg, C1D8, 10 mg BID (n = 3), geometric mean, read-out: C max, ss) was 53.9 ng/mL, the Tmax (10 mg, C1D8, 10 mg BID (n = 3), median) was 2 h and the AUC(0-t) (15 mg, C1D1, 15 mg BID (n = 4), geometric mean) was 310 ng·h/mL. The Cmax (15 mg, C1D1, 15 mg BID (n = 4), geometric mean, read-out: Cmax) was 135 ng/mL, the Tmax (15 mg, C1D1, 15 mg BID (n = 4), median) was 0.75 h and the AUC (15 mg, C1D8, 15 mg BID (n = 4), geometric mean, read-out: AUC (0-tau), ss) was 504 ng·h/mL. For the same compound, the Cmax (15 mg, C1D8, 15 mg BID (n = 4), geometric mean, read-out: C max, ss) was 159 ng/mL, the half-life (15 mg, C1D8, 15 mg BID (n = 4), geometric mean) was 7.1 h and the Tmax (15 mg, C1D8, 15 mg BID (n = 4), median) was 0.75 h. It also gave an AUC(0-t) (20 mg, C1D1, 20 mg BID (n = 3), geometric mean) of 501 ng·h/mL, a Cmax (20 mg, C1D1, 20 mg BID (n = 3), geometric mean, read-out: Cmax) of 146 ng/mL and a Tmax (20 mg, C1D1, 20 mg BID (n = 3), median) of 1 h. For the same compound, the AUC (20 mg, C1D8, 20 mg BID (n = 3), geometric mean, read-out: AUC (0-tau), ss) was 866 ng·h/mL, the Cmax (20 mg, C1D8, 20 mg BID (n = 3), geometric mean, read-out: C max, ss) was 278 ng/mL and the Tmax (20 mg, C1D8, 20 mg BID (n = 3), median) was 0.5 h. It also gave a half-life (20 mg, C1D8, 20 mg BID, based on 2 patients, both patients) of 12.2 h, an AUC(0-t) (30 mg, C1D1, 30 mg BID (n = 3), geometric mean) of 349 ng·h/mL and a Cmax (30 mg, C1D1, 30 mg BID (n = 3), geometric mean, read-out: Cmax) of 105 ng/mL. The Tmax (30 mg, C1D1, 30 mg BID (n = 3), median) was 2 h, the AUC (30 mg, C1D8, 30 mg BID (n = 3), geometric mean, read-out: AUC (0-tau), ss) was 396 ng·h/mL and the Cmax (30 mg, C1D8, 30 mg BID (n = 3), geometric mean, read-out: C max, ss) was 68.3 ng/mL. It also gave a Tmax (30 mg, C1D8, 30 mg BID (n = 3), median) of 2 h, an AUC(0-t) (45 mg, C1D1, 45 mg BID (n = 4), geometric mean) of 865 ng·h/mL and a Cmax (45 mg, C1D1, 45 mg BID (n = 4), geometric mean, read-out: Cmax) of 209 ng/mL. The Tmax (45 mg, C1D1, 45 mg BID (n = 4), median) was 1 h, the AUC (45 mg, C1D8, 45 mg BID (n = 4), geometric mean, read-out: AUC (0-tau), ss) was 1070 ng·h/mL and the Cmax (45 mg, C1D8, 45 mg BID (n = 4), geometric mean, read-out: C max, ss) was 199 ng/mL. For the same compound, the half-life (45 mg, C1D8, 45 mg BID (n = 4), geometric mean) was 6.59 h, the Tmax (45 mg, C1D8, 45 mg BID (n = 4), median) was 3 h and the AUC(0-t) (80 mg, C1D1, 80 mg BID (n = 3), geometric mean) was 758 ng·h/mL. It also gave a Cmax (80 mg, C1D1, 80 mg BID (n = 3), geometric mean, read-out: Cmax) of 279 ng/mL, a Tmax (80 mg, C1D1, 80 mg BID (n = 3), median) of 2 h and an AUC (80 mg, C1D8, 80 mg BID (n = 3), geometric mean, read-out: AUC (0-tau), ss) of 2100 ng·h/mL. The Cmax (80 mg, C1D8, 80 mg BID (n = 3), geometric mean, read-out: C max, ss) was 737 ng/mL, the half-life (80 mg, C1D8, 80 mg BID (n = 3), geometric mean) was 17.4 h and the Tmax (80 mg, C1D8, 80 mg BID (n = 3), median) was 1 h. For the same compound, the AUC(0-t) (100 mg, C1D1, 100 mg BID (n = 6), geometric mean) was 1420 ng·h/mL, the Cmax (100 mg, C1D1, 100 mg BID (n = 6), geometric mean, read-out: Cmax) was 443 ng/mL and the Tmax (100 mg, C1D1, 100 mg BID (n = 6), median) was 0.5 h. The Cmax (100 mg, C1D8, 100 mg BID (n = 6), geometric mean, read-out: C max, ss) was 862 ng/mL, the half-life (100 mg, C1D8, 100 mg BID (n = 6), geometric mean) was 13 h and the Tmax (100 mg, C1D8, 100 mg BID (n = 6), median) was 1 h. The AUC (100 mg, C1D8, 100 mg BID, based on 5 patients, geometric mean, read-out: AUC (0-tau), ss) was 2700 ng·h/mL, the AUC(0-t) (120 mg, C1D1, 120 mg BID (n = 3), geometric mean) was 1910 ng·h/mL and the Cmax (120 mg, C1D1, 120 mg BID (n = 3), geometric mean, read-out: Cmax) was 557 ng/mL. The Tmax (120 mg, C1D1, 120 mg BID (n = 3), median) was 2 h, the AUC(0-t) (120 mg, C1D1, 120 mg BID (n = 8, incl. additional cases), geometric mean) was 1910 ng·h/mL and the Cmax (120 mg, C1D1, 120 mg BID (n = 8, incl. additional cases), geometric mean, read-out: Cmax) was 557 ng/mL. For the same compound, the Tmax (120 mg, C1D1, 120 mg BID (n = 8, incl. additional cases), median) was 2 h, the AUC (120 mg, C1D8, 120 mg BID (n = 3), geometric mean, read-out: AUC (0-tau), ss) was 2460 ng·h/mL and the Cmax (120 mg, C1D8, 120 mg BID (n = 3), geometric mean, read-out: C max, ss) was 737 ng/mL. For the same compound, the half-life (120 mg, C1D8, 120 mg BID (n = 3), geometric mean) was 5.49 h, the Tmax (120 mg, C1D8, 120 mg BID (n = 3), median) was 1 h and the AUC (120 mg, C1D8, 120 mg BID (n = 8), based on n = 7 subjects, geometric mean, read-out: AUC (0-tau), ss) was 2460 ng·h/mL. The Cmax (120 mg, C1D8, 120 mg BID (n = 8), based on n = 7 subjects, geometric mean, read-out: C max, ss) was 751 ng/mL, the Tmax (120 mg, C1D8, 120 mg BID (n = 8), based on n = 7 subjects, median) was 1 h and the AUC (160 mg BID, C1D8, read-out: lowest value of AUC(0-tau),ss of the subjects in which vomiting could not be suppressed even after the 5-HT3 receptor antagonist) was 9060 ng·h/mL. The Tmax (160 mg, C1D1, 160 mg BID (n = 2), both patients) was 0.5 h, the Tmax [2] was 1 h and the Cmax (160 mg, C1D8, 160 mg BID (n = 2), both patients, read-out: C max, ss) was 2980 ng/mL. For the same compound, the half-life [2] was 17.5 h and the AUC (C1D8, read-out: highest value of AUC(0-tau),ss of the subjects in which vomiting could be suppressed by the 5-HT3 receptor antagonist) was 7640 ng·h/mL.
